# US20120029016A1, “Indoles Useful in the Treatment of Inflammation” (BIOLIPOX AB, priority 2008, published 2012)
# Key:
# [1] = target: T1, Recombinant human LTC4 synthase (Homo sapiens, UniProt Q16873); experiment: In vitro assay Method B: LTC4 synthase, LTA4 to LTC4, HTRF detection; assay type: biochemical; conditions: total concentration of title compound 10 μM, read-out: % inh. of LTC4 synthase
# T1 construct: made in house; host or cells: Pichia pastoris ('Piccia pastoralis' [sic])
# T1 sequence (Q16873 1-150): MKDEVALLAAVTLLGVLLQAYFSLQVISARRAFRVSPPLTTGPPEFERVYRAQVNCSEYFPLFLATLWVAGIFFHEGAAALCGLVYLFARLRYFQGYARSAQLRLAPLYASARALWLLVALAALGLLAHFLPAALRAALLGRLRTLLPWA
# Method: In the assay, LTC4 synthase catalyses the reaction where the substrate LTA4 is converted to LTC4. Recombinant human LTC4 synthase is expressed in Piccia pastoralis and the purified enzyme is dissolved in 25 mM Tris-buffer pH 7.8 and stored at −20° C. The assay is performed in phosphate buffered saline (PBS) pH 7.4, supplemented with 5 mM glutathione (GSH). The assay is performed at rt in 384-well plates. Analysis of the formed LTC4 is performed using costume made homogenous time-resolved fluorescence (HTRF) detection (Cisbio).
# The following is added chronologically to each well: • 1. 50 μL assay buffer, PBS with 5 mM GSH. • 2. 0.5 μL inhibitor in DMSO. • 3. 2 μl LTC4 synthase in PBS. The total protein concentration in this solution is 0.025 mg/ml. Incubation of the plate at rt for 10 min. • 4. 1-1.5 μL LTA4 (final conc. 2.5 μM). Incubation of the plate at rt for 1 min. 10 μL of the incubation mixture is analysed using HTRF detection.
# [2] = system: cysteinyl leukotrienes concentration in the peritoneal lavage; experiment: Mouse peritoneal inflammation model (zymosan ip), cysteinyl leukotrienes in peritoneal lavage by EIA; assay type: in vivo, Male BALB/c mice; conditions: 0.5 h, 5 min before zymosan, lavage 30 min after zymosan, read-out: %-inhibition of cysteinyl leukotrienes concentration vs vehicle treated mice; for inhibition in vivo at 3 mg/kg: 3 mg/kg ip; for inhibition in vivo at 10 mg/kg: 10 mg/kg ip
# Method: The in vivo efficacy of leukotriene biosynthesis inhibitors was assed by using a model of peritoneal inflammation. Male BALB/c mice (weighing 20-25 grams) received an intraperitoneal injection (ip) of 0.5 ml zymosan dissolved in phosphate buffer saline (PBS) (pH 7.5, 1 mg/mL). 5 Minutes before the zymosan injection compounds (1-10 mg/kg) or vehicle were administered ip (10 mL/kg). 30 min after the zymosan injection the mice were anaesthetized and the peritoneal cavity was flushed with 4 mL PBS. The peritoneal lavage was centrifuged at 6000 rcf for 5 minutes and the cysteinyl leukotrienes concentration in the supernatant was determined by EIA. The cysteinyl leukotrienes concentration in the peritoneal lavage from compound treated mice was compared to vehicle treated mice and the % inhibition was calculated.
inhibition at 10 µM [1] [%],SMILES,further results
95,"CC(C)Oc1ccc(Oc2ccc3c(c2)c(C(=O)O)c(CC(=O)O)n3-c2ccc(OCc3ccccc3Cl)cc2)cc1 [1:3, 2-Carboxymethyl-1-[4-(2-chlorobenzyloxy)phenyl]-5-(4-isopropoxy-phenoxy)indole-3-carboxylic acid]",–
93,"CC(C)Oc1ccc(Oc2ccc3c(c2)c(C(=O)O)c(CC(=O)O)n3-c2ccc(OCc3ccc(Cl)c(Cl)c3)cc2)cc1 [1:4, 2-Carboxymethyl-1-[4-(3,4-dichlorobenzyloxy)phenyl]-5-(4-isopropoxyphenoxy)indole-3-carboxylic acid]",–
95,"CC(C)Oc1ccc(Oc2ccc3c(c2)c(C(=O)O)c(CC(=O)O)n3-c2ccc(OCc3ccc(Cl)cc3)cc2)cc1 [1:6, 2-Carboxymethyl-1-[4-(4-chlorobenzyloxy)phenyl]-5-(4-isopropoxy-phenoxy)indole-3-carboxylic acid]",–
94,"CC(C)Oc1ccc(Oc2ccc3c(c2)c(C(=O)O)c(CC(=O)O)n3-c2ccc(OCc3cccc(Cl)c3)cc2)cc1 [1:7, 2-Carboxymethyl-1-[4-(3-chlorobenzyloxy)phenyl]-5-(4-isopropoxy-phenoxy)indole-3-carboxylic acid]",–
99,"CC(C)Oc1ccc(Oc2ccc3c(c2)c(C(=O)O)c(CC(=O)O)n3-c2ccc(OCc3ccc(Cl)nc3)cc2)cc1 [1:11, 2-Carboxymethyl-1-[4-(6-chloro-3-pyridinylmethoxy)phenyl]-5-(4-isopropoxyphenoxy)indole-3-carboxylic acid]",–
97,"CC(C)Oc1ccc(Oc2ccc3c(c2)c(C(=O)O)c(CC(=O)O)n3-c2ccc(Oc3cccc(Cl)c3)cc2)cc1 [3:2, 2-Carboxymethyl-1-[4-(3-chlorophenoxy)phenyl]-5-(4-isopropoxy-phenoxy)indole-3-carboxylic acid]",–
9,"CC(C)Oc1ccc(Oc2ccc3c(c2)c(C(=O)O)c(CC(=O)O)n3-c2ccc(Oc3ccccc3Cl)cc2)cc1 [3:4, 2-Carboxymethyl-1-[4-(2-chlorophenoxy)phenyl]-5-(4-isopropoxy-phenoxy)indole-3-carboxylic acid]",–
100,"O=C(O)Cc1c(C(=O)O)c2cc(Oc3ccc(OC(F)(F)F)cc3)ccc2n1-c1ccc(OC2CCCC2)cc1 [4:2, 2-Carboxymethyl-1-(4-cyclopentyloxyphenyl)-5-(4-trifluoromethoxyphenoxy)indole-3-carboxylic acid]",–
97,"O=C(O)Cc1c(C(=O)O)c2cc(Oc3ccc(OC4CCCC4)cc3)ccc2n1-c1ccc(OC2CCCC2)cc1 [4:3, 2-Carboxymethyl-5-(4-cyclopentyloxyphenoxy)-1-(4-cyclopentyloxyphenyl)indole-3-carboxylic acid]",–
98,"O=C(O)Cc1c(C(=O)O)c2cc(Oc3ccc(OC4CC4)cc3)ccc2n1-c1ccc(OC2CCCC2)cc1 [4:4, 2-Carboxymethyl-1-(4-cyclopentyloxyphenyl)-5-(4-cyclopropoxyphenoxy)-indole-3-carboxylic acid]",–
95,"CC(C)Oc1ccc(Oc2ccc3c(c2)c(C(=O)O)c(CC(=O)O)n3-c2ccc(OC3CC4CCC3C4)cc2)cc1 (centres unmarked) [5:3, 2-Carboxymethyl-5-(4-isopropoxyphenoxy)-1-[4-(2-norbomanyloxy)-phenyl]indole-3-carboxylic acid]",–
100,"O=C(O)Cc1c(C(=O)O)c2cc(Oc3ccc(OC(F)(F)F)cc3)ccc2n1-c1ccc(NCc2cccnc2)cc1 [6:1, 2-Carboxymethyl-1-[4-(3-pyridinylmethylamino)phenyl]-5-(4-trifluoromethoxyphenoxy)indole-3-carboxylic acid]",–
100,"CCN(c1ccccc1)c1ccc(-n2c(CC(=O)O)c(C(=O)O)c3cc(Oc4ccc(OC(F)(F)F)cc4)ccc32)cc1 [6:3, 2-Carboxymethyl-1-{4-[ethyl(phenyl)amino]phenyl}-5-(4-trifluoromethoxy-phenoxy)indole-3-carboxylic acid]",–
94,"CCN(c1ccc(-n2c(CC(=O)O)c(C(=O)O)c3cc(Oc4ccc(OC(F)(F)F)cc4)ccc32)cc1)c1cccc(C)c1 [6:4, 2-Carboxymethyl-1-{4-[ethyl(m-tolyl)amino]phenyl}-5-(4-trifluoromethoxy-phenoxy)indole-3-carboxylic acid]",–
100,"O=C(O)Cc1c(C(=O)O)c2cc(Oc3ccc(OC(F)(F)F)cc3)ccc2n1-c1ccc(NC2CCCC2)cc1 [6:5, 2-Carboxymethyl-1-(4-cyclopentylaminophenyl)-5-(4-trifluoromethoxy-phenoxy)indole-3-carboxylic acid]",–
97,"O=C(O)Cc1c(C(=O)O)c2cc(Oc3ccc(OC(F)(F)F)cc3)ccc2n1-c1ccc(NCC2CCCCC2)cc1 [6:6, 2-Carboxymethyl-1-(4-cyclohexylmethylaminophenyl)-5-(4-trifluoro-methoxyphenoxy)indole-3-carboxylic acid]",–
98,"CCCCCCCCNc1ccc(-n2c(CC(=O)O)c(C(=O)O)c3cc(Oc4ccc(OC(F)(F)F)cc4)ccc32)cc1 [6:7, 2-Carboxymethyl-1-(4-octylaminophenyl)-5-(4-trifluoromethoxyphenoxy)-indole-3-carboxylic acid]",–
97,"O=C(O)Cc1c(C(=O)O)c2cc(Oc3ccc(OC(F)(F)F)cc3)ccc2n1-c1ccc(Nc2cccc3c2CCCC3)cc1 [6:8, 2-Carboxymethyl-1-[4-(5,6,7,8-tetrahydro-1-naphthylamino)phenyl]-5-(4-trifluoromethoxyphenoxy)indole-3-carboxylic acid]",–
100,"O=C(O)Cc1c(C(=O)O)c2cc(Oc3ccc(OC(F)(F)F)cc3)ccc2n1-c1ccc(NCc2ccccc2)cc1 [6:9, 1-(4-benzylaminophenyl)-2-carboxymethyl-5-(4-trifluoromethoxy-phenoxy)indole-3-carboxylic acid]",–
99,"CC(C)Oc1ccc(Oc2ccc3c(c2)c(C(=O)O)c(CC(=O)O)n3-c2ccc(OCc3ccccc3)cc2)cc1 [Example 1:1, 1-(4-Benzyloxyphenyl)-2-carboxymethyl-5-(4-isopropoxyphenoxy)indole-3-carboxylic acid]",inhibition in vivo at 1 mg/kg ([2]; 1 mg/kg ip): 78%; inhibition in vivo at 3 mg/kg [2]: 92%; inhibition in vivo at 10 mg/kg [2]: 100%
96,"Cc1ccc(COc2ccc(-n3c(CC(=O)O)c(C(=O)O)c4cc(Oc5ccc(OC(C)C)cc5)ccc43)cc2)cc1 [Example 1:2, 2-Carboxymethyl-5-(4-isopropoxyphenoxy)-1-(4-(4-methylbenzyloxy)phenyl)indole-3-carboxylic acid]",–
97,"COc1ccc(COc2ccc(-n3c(CC(=O)O)c(C(=O)O)c4cc(Oc5ccc(OC(C)C)cc5)ccc43)cc2)cc1 [Example 1:5, 2-Carboxymethyl-1-5-(4-isopropoxyphenoxy)-[4-(4-methoxybenzyloxy)-phenyl]indole-3-carboxylic acid]",inhibition in vivo at 10 mg/kg [2]: 92%
98,"CC(C)Oc1ccc(Oc2ccc3c(c2)c(C(=O)O)c(CC(=O)O)n3-c2ccc(OCc3ccccc3C(F)(F)F)cc2)cc1 [Example 1:8, 2-Carboxymethyl-1-5-(4-isopropoxyphenoxy)-[4-(2-trifluoromethyl-benzyloxy)phenyl]indole-3-carboxylic acid]",inhibition in vivo at 10 mg/kg [2]: 96%
98,"CC(C)Oc1ccc(Oc2ccc3c(c2)c(C(=O)O)c(CC(=O)O)n3-c2ccc(OCc3ccccn3)cc2)cc1 [Example 1:9, 2-Carboxymethyl-1-5-(4-isopropoxyphenoxy)-[4-(2-pyridinylmethoxy)-phenyl]indole-3-carboxylic acid]",inhibition in vivo at 3 mg/kg [2]: 97%
97,"CC(C)Oc1ccc(Oc2ccc3c(c2)c(C(=O)O)c(CC(=O)O)n3-c2ccc(OC3CCC(C)(C)CC3)cc2)cc1 [Example 5:1, 2-Carboxymethyl-1-[4-(4,4-dimethylcyclohexyloxy)phenyl]-5-(4-isopropoxyphenoxy)indole-3-carboxylic acid]",–
95,"O=C(O)Cc1c(C(=O)O)c2cc(Oc3ccc(OC(F)(F)F)cc3)ccc2n1-c1ccc(NCc2ccc(Cl)nc2)cc1 [Example 6:2, 2-Carboxymethyl-1-{4-[(6-chloro-3-pyridinylmethyl)amino]phenyl}-5-(4-trifluoromethoxyphenoxy)indole-3-carboxylic acid]",–
